Results as given in patent US9920017B2, “Heterocyclic compounds as pesticides” (BAYER CROPSCIENCE AKTIENGESELLSCHAFT, priority 2014, dated 2018).
Like-named read-outs stand apart in the source and are kept apart here.

Columns and labels:
[1] = test system: Meloidogyne incognita; assay: Meloidogyne incognita test (MELGIN); type: in vivo; conditions: 20 ppm; lettuce; after 14 days
Method: Meloidogyne incognita Test (MELGIN) Solvent: 125.0 parts by weight of acetone To produce a suitable active ingredient formulation, 1 part by weight of active ingredient is mixed with the stated amount of solvent and the concentrate is diluted with water to the desired concentration. Vessels are filled with sand, active ingredient solution, an egg/larvae suspension of the southern root-knot nematode (Meloidogyne incognita) and lettuce seeds. The lettuce seeds germinate and the plants develop. The galls develop on the roots. After 14 days, the nematicidal efficacy in % is determined by the formation of galls. 100% means that no galls were found; 0% means that the number of galls on the treated plants corresponds to the untreated control.

[2] = Determination of log P values by HPLC (reversed-phase C18); type: physicochemical; conditions: for chromatographic logP: reversed-phase C18 HPLC column; for logP (neutral): compounds of formula (IIa-1), R3 hydrogen
Method: 1) Description of Method for Determination of the Log P Values ([…]) The log P values given in the table were determined in accordance with EEC Directive 79/831 Annex V.A8 by HPLC (High Performance Liquid Chromatography) using a reversed-phase column (C 18). Temperature: 55° C. […] Gradient: from 10% eluent A/90% eluent B to 95% eluent A/5% eluent B in 4.25 min. Calibration was effected with unbranched alkan-2-ones (having 3 to 16 carbon atoms) with known log P values (log P values determined on the basis of the retention times by linear interpolation between two successive alkanones). The lambda max values were determined in the maxima of the chromatographic signals using the UV spectra from 200 nm to 400 nm.

[3] = test system: Cooperia curticei; assay: Cooperia curticei test; type: in vivo; conditions: 20 ppm; nematode larvae; after 5 days
Method: Solvent: dimethyl sulphoxide
To produce an appropriate active ingredient formulation, 10 mg of active ingredient are mixed with 0.5 ml of dimethyl sulphoxide and the concentrate is diluted with “Ringer's solution” to the desired concentration.
Vessels containing the active ingredient formulation of the desired concentration are populated with about 40 nematode larvae (Cooperia curticei).
After 5 days, the kill in % is determined 100% means that all the larvae have been killed; 0% means that none of the larvae have been killed.

[4] = HPLC, reversed-phase C18, 55° C., final compounds table
[5] = HPLC-MS, preparation examples, read-out: log P (neutral)
[6] = pH 3.4, HPLC-MS, preparation examples, read-out: log P

Row | Compound | log P neutral [2, 4] | nematicidal efficacy (formation of galls) [1] | further results
1 | O=C(Nc1ncn(-c2ccccc2C(F)(F)F)n1)c1ccccc1C(F)(F)F [Compound I-1-8] | 2.24 | 100% | –
2 | O=C(Nc1ncn(-c2c(F)cccc2F)n1)c1ccccc1Cl [Compound I-1-13, 2-Chloro-N-[1-(2,6-difluorophenyl)-1H-1,2,4-triazol-3-yl]benzamide] | – | 100% | chromatographic logP [2, 5]: 1.73
3 | CCc1ccccc1C(=O)Nc1ncn(-c2c(F)cccc2F)n1 [Compound I-1-15] | – | 100% | chromatographic logP [2, 5]: 2.05
4 | O=C(Nc1ncn(-c2c(F)cccc2C(F)(F)F)n1)c1ccccc1C(F)(F)F [Compound I-1-26] | 2.25 | 100% | efficacy (kill) [3]: 90%
5 | O=C(Nc1ncn(-c2c(F)cccc2C(F)(F)F)n1)c1ccccc1I [Compound I-1-28, N-{1-[2-Fluoro-6-(trifluoromethyl)phenyl]-1H-1,2,4-triazol-3-yl}-2-iodobenzamide] | – | 100% | chromatographic logP [2, 5]: 2.21; efficacy (kill) [3]: 80%
6 | O=C(Nc1ncn(-c2ccccc2I)n1)c1ccccc1C(F)(F)F [Compound I-1-75] | 2.20 | 90% | –
7 | O=C(Nc1ncn(-c2c(Br)cccc2Br)n1)c1ccccc1C(F)(F)F [Compound I-1-80] | 2.32 | 100% | –
8 | O=C(Nc1ncn(-c2ncc(F)cc2F)n1)c1ccccc1C(F)(F)F [Compound I-1-89, N-[1-(3,5-Difluoropyridin-2-yl)-1H-1,2,4-triazol-3-yl]-2-(trifluoromethyl)benzamide] | – | 100% | chromatographic logP [2, 6]: 1.76; chromatographic logP ([2]; HPLC, reversed-phase C18, 55° C., final compounds table, read-out: log P neutral): 1.76
9 | Nc1ncn(-c2cc(Cl)ccc2Cl)n1 [IIa-1 R1=Cl R2m=5% Cl:] | – | – | logP (neutral) [2]: 1.44
10 | Nc1ncn(-c2c(Cl)cccc2Cl)n1 [IIa-1 R1=Cl R2m=6% Cl:] | – | – | logP (neutral) [2]: 0.94
11 | CCc1cccc(Cl)c1-n1cnc(N)n1 [IIa-1 R1=Cl R2m=6-C2H5] | – | – | logP (neutral) [2]: 1.12
12 | Cc1cccc(Cl)c1-n1cnc(N)n1 [IIa-1 R1=Cl R2m=6-CH3] | – | – | logP (neutral) [2]: 1.12
13 | Nc1ncn(-c2c(F)cccc2Cl)n1 [IIa-1 R1=Cl R2m=6-F] | – | – | logP (neutral) [2]: 0.86
14 | Nc1ncn(-c2ccccc2Cl)n1 [IIa-1 R1=Cl R2m=—] | – | – | logP (neutral) [2]: 0.96
15 | Nc1ncn(-c2c(F)c(F)c(F)c(F)c2F)n1 [IIa-1 R1=F R2m=3,4,5,6-F4] | – | – | logP (neutral) [2]: 1.31
16 | Nc1ncn(-c2c(F)ccc(F)c2F)n1 [IIa-1 R1=F R2m=3,6-F2-phenyl] | – | – | logP (neutral) [2]: 0.84
17 | Nc1ncn(-c2c(F)cc(F)cc2F)n1 [IIa-1 R1=F R2m=4,6-F2] | – | – | logP (neutral) [2]: 0.82
18 | Cc1cccc(F)c1-n1cnc(N)n1 [IIa-1 R1=F R2m=6-CH3] | – | – | logP (neutral) [2]: 1.03
19 | Nc1ncn(-c2c(F)cccc2I)n1 [IIa-1 R1=F R2m=6-I] | – | – | logP (neutral) [2]: 1.07
20 | Nc1ncn(-c2ccccc2F)n1 [IIa-1 R1=F R2m=—] | – | – | logP (neutral) [2]: 0.86
21 | Nc1ncn(-c2ccccc2I)n1 [IIa-1 R1=I R2m=—] | – | – | logP (neutral) [2]: 1.13
22 | Nc1ncn(-c2ccccc2OC(F)(F)F)n1 [IIa-1 R1=OCF3 R2m=—] | – | – | logP (neutral) [2]: 1.44
23 | CO/C(=N\C#N)c1ccccc1 [Methyl N-cyanobenzenecarboximidoate] | – | – | chromatographic logP [2, 5]: 1.83
24 | O=C(Nc1nn[nH]n1)c1ccccc1C(F)(F)F [N-(2H-Tetrazol-5-yl)-2-(trifluoromethyl)benzamide] | – | – | chromatographic logP [2, 6]: 1.17
25 | O=C(Nc1ncn(-c2c(F)cccc2F)n1)c1ccccc1 [N-[1-(2,6-Difluorophenyl)-1H-1,2,4-triazol-3-yl]benzamide] | – | – | chromatographic logP [2, 5]: 1.59
26 | O=C(Nc1ncn(-c2c(F)cccc2Br)n1)c1ccccc1 [N-[1-(2-Bromo-6-fluorophenyl)-1H-1,2,4-triazol-3-yl]benzamide] | – | – | chromatographic logP [2, 5]: 1.79
27 | O=C(Nc1ncn(-c2ncc(F)cc2F)n1)c1ccccc1 [N-[1-(3,5-Difluoropyridin-2-yl)-1H-1,2,4-triazol-3-yl]benzamide] | – | – | chromatographic logP [2, 5]: 1.36
28 | O=C(Nc1ncn(-c2c(F)cccc2C(F)(F)F)n1)c1ccccc1 [N-{1-[2-Fluoro-6-(trifluoromethyl)phenyl]-1H-1,2,4-triazol-3-yl}benzamide] | – | – | chromatographic logP [2, 5]: 1.95

Second part, led by results:

Row | log P neutral [2, 4] | Compound | nematicidal efficacy (formation of galls) [1] | further results
29 | 1.97 | O=C(Nc1ncn(-c2ccccc2Cl)n1)c1ccccc1Br [Compound I-1-4] | 90% | –
30 | 1.80 | O=C(Nc1ncn(-c2c(F)cccc2F)n1)c1ccccc1Br [Compound I-1-12] | 90% | –
31 | 1.72 | Cc1ccccc1C(=O)Nc1ncn(-c2c(F)cccc2F)n1 [Compound I-1-14] | 100% | –
32 | 2.09 | O=C(Nc1ncn(-c2c(F)cccc2F)n1)c1cc(F)ccc1C(F)(F)F [Compound I-1-19] | 100% | –
33 | 2.04 | O=C(Nc1ncn(-c2c(F)cccc2F)n1)c1c(F)cccc1C(F)(F)F [Compound I-1-20] | 100% | efficacy (kill) [3]: 100%
34 | 1.54 | O=C(Nc1ncn(-c2c(F)cccc2F)n1)c1ccccc1[N+](=O)[O-] [Compound I-1-22] | 90% | –
35 | 2.06 | O=C(Nc1ncn(-c2c(F)cccc2C(F)(F)F)n1)c1ccccc1Cl [Compound I-1-27] | 90% | –
36 | 2.39 | CCc1ccccc1C(=O)Nc1ncn(-c2c(F)cccc2C(F)(F)F)n1 [Compound I-1-29] | 100% | –
37 | 1.95 | O=C(Nc1ncn(-c2c(F)cccc2Br)n1)c1ccccc1Cl [Compound I-1-31] | 100% | –
38 | 2.08 | O=C(Nc1ncn(-c2c(F)cccc2Br)n1)c1ccccc1I [Compound I-1-32] | 100% | –
39 | 2.04 | O=C(Nc1ncn(-c2c(F)cccc2Cl)n1)c1ccccc1I [Compound I-1-35] | 100% | –
40 | 2.26 | Cc1cccc(Cl)c1-n1cnc(NC(=O)c2ccccc2C(F)(F)F)n1 [Compound I-1-40] | 90% | –
41 | 2.55 | CCc1cccc(Cl)c1-n1cnc(NC(=O)c2ccccc2C(F)(F)F)n1 [Compound I-1-42] | 90% | –
42 | 2.09 | O=C(Nc1ncn(-c2c(Cl)cccc2Cl)n1)c1ccccc1Br [Compound I-1-45] | 100% | –
43 | 2.03 | O=C(Nc1ncn(-c2c(Cl)cccc2Cl)n1)c1ccccc1Cl [Compound I-1-46] | 90% | –
44 | 1.91 | O=C(Nc1ncn(-c2c(F)ccc(F)c2F)n1)c1ccccc1Cl [Compound I-1-58] | 100% | –
45 | 2.21 | CCc1ccccc1C(=O)Nc1ncn(-c2c(F)ccc(F)c2F)n1 [Compound I-1-60] | 100% | –
46 | 2.05 | O=C(Nc1ncn(-c2c(F)cc(F)cc2F)n1)c1ccccc1C(F)(F)F [Compound I-1-61] | 100% | efficacy (kill) [3]: 80%
47 | 1.85 | O=C(Nc1ncn(-c2c(F)cc(F)cc2F)n1)c1ccccc1Cl [Compound I-1-62] | 100% | –
48 | 2.00 | O=C(Nc1ncn(-c2c(F)cc(F)cc2F)n1)c1ccccc1I [Compound I-1-63] | 100% | efficacy (kill) [3]: 100%
49 | 2.14 | CCc1ccccc1C(=O)Nc1ncn(-c2c(F)cc(F)cc2F)n1 [Compound I-1-64] | 100% | –
50 | 2.43 | O=C(Nc1ncn(-c2c(F)c(F)c(F)c(F)c2F)n1)c1ccccc1I [Compound I-1-67] | 90% | –
51 | 2.46 | O=C(Nc1ncn(-c2c(Br)cc(F)cc2Br)n1)c1ccccc1C(F)(F)F [Compound I-1-87] | 90% | –
52 | 2.04 | O=C(Nc1ncn(-c2c(F)c(F)cc(F)c2F)n1)c1ccccc1Cl [Compound I-1-92] | 90% | –
53 | 2.23 | O=C(Nc1ncn(-c2c(F)c(F)cc(F)c2F)n1)c1ccccc1C(F)(F)F [Compound I-1-93] | 100% | –
